For 16 compounds, EC50 results are on record in US12577206B2 (BRISTOL-MYERS SQUIBB COMPANY, priority 2020, dated 2026).

Test [1] has as its target T1, human FPR2 (Homo sapiens, UniProt P25090).
T1 sequence (P25090 1-351): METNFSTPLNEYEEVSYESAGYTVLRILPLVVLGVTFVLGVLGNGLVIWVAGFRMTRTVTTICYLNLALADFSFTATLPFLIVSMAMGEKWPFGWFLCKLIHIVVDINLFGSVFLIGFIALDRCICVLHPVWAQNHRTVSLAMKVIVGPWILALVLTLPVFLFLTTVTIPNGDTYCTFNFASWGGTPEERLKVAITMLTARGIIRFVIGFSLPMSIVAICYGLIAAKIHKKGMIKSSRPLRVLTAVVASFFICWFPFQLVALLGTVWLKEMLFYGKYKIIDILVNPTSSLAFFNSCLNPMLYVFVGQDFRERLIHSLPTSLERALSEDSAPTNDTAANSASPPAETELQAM
Nature of the test: FPR2 cyclic adenosine monophosphate (cAMP) assay. It is filed as cell-based. As to conditions: CHO cells overexpressing human FPR2; forskolin 5 μM; inhibition of cAMP production; HTRF; read-out: hFPR2 cAMP2 EC50. The method in brief: (§1)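 CHO cells overexpressing human FPR1 (4,000/well) or FPR2 (2,000/well) were incubated 30 min at room temperature with compound (0.020 nM to 100 μM, 1% DMSO), IBMX 200 μM, and forskolin at 10 μM (FPR1) or 5 μM (FPR2), all final. HTRF cAMP read-out; inhibition fitted by 4-parameter logistic equation.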
For orientation: Cyclic AMP is a second messenger, typically raised through Gs and lowered through Gi signalling.

The target of test [2] is T2, human FPR1 (Homo sapiens, UniProt P21462).
T2 sequence (P21462 1-350): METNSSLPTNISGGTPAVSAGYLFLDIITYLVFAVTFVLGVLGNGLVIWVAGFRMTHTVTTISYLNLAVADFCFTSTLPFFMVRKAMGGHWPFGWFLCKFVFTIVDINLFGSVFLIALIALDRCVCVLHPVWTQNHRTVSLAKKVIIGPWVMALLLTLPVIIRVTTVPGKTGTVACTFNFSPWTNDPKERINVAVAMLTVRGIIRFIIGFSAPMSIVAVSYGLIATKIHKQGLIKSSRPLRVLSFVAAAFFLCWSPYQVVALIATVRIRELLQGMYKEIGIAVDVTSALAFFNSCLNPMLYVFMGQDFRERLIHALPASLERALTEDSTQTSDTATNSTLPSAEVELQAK
The test can be described thus: FPR1 cyclic adenosine monophosphate (cAMP) assay. It is filed as cell-based. As to conditions: CHO cells overexpressing human FPR1; forskolin 10 μM; inhibition of cAMP production; HTRF; read-out: hFPR1 cAMP2 EC50. The method in brief: as §1

The term EC50 denotes the concentration giving half of the maximal effect. On to `COc1ccnc(-n2c(=O)c(NC(=O)c3ccc(OC(F)F)cc3)c(-c3c(F)cc(OC)cc3F)n2C)c1` [Example 59, N-[5-(2,6-difluoro-4-methoxyphenyl)-2-(4-methoxypyridin-2-yl)-1-methyl-3-oxo-2,3-dihydro-1H-pyrazol-4-yl]-4-(difluoromethoxy)benzamide], for which the EC50 in test [1] was 8 nM; in test [2] it was above 10000 nM.

On to `COc1cc(F)c(-c2c(NC(=O)c3ccc(OC(F)F)cc3)c(=O)n(-c3cc(C)cc(OC4CCOC4)n3)n2C)c(F)c1` (centres unmarked) [Example 359, N-(5-(2,6-Difluoro-4-methoxyphenyl)-1-methyl-2-(4-methyl-6-((tetrahydrofuran-3-yl)oxy)pyridin-2-yl)-3-oxo-2,3-dihydro-1H-pyrazol-4-yl)-4-(difluoromethoxy)benzamide], for which the concentration for a half-maximal effect (EC50) is 5 nM in test [1] and above 10000 nM in test [2].

As to `CNC(=O)[C@H](C)Nc1ccc(C(F)(F)F)c(-n2c(=O)c(NC(=O)c3ccc(OC(F)F)cc3)c(-c3c(F)cc(OC)cc3F)n2C)n1` [Example 232, N-[5-(2,6-difluoro-4-methoxyphenyl)-1-methyl-2-(6-{[(1S)-1-(methylcarbamoyl)ethyl]amino}-3-(trifluoromethyl)pyridin-2-yl)-3-oxo-2,3-dihydro-1H-pyrazol-4-yl]-4-(difluoromethoxy)benzamide], the 50% effective concentration (EC50) in test [1] is 5 nM; in test [2], above 10000 nM.

As to `COc1cc(F)c(-c2c(NC(=O)c3ccc(OC(F)(F)F)cc3)c(=O)n(-c3ncccc3C(F)(F)F)n2C)c(F)c1` [Example 154, N-[5-(2,6-difluoro-4-methoxyphenyl)-1-methyl-3-oxo-2-[3-(trifluoromethyl)pyridin-2-yl]-2,3-dihydro-1H-pyrazol-4-yl]-4-(trifluoromethoxy)benzamide], the figures for the EC50 in test [1] and in test [2] were 4 nM and above 10000 nM, respectively.

For the compound `COc1cc(F)c(-c2c(NC(=O)c3ccc(OC(F)F)cc3)c(=O)n(-c3cccc(N4CCN(CCCO)CC4)n3)n2C)c(F)c1` [Example 208, N-[5-(2,6-difluoro-4-methoxyphenyl)-2-{6-[4-(3-hydroxypropyl)piperazin-1-yl]pyridin-2-yl}-1-methyl-3-oxo-2,3-dihydro-1H-pyrazol 4-yl]-4-(difluoromethoxy)benzamide], the EC50 in test [1] is 3 nM; in test [2] it was above 10000 nM.

Take `Cn1ncc2cc(-c3c(NC(=O)c4ccc(OC(F)F)cc4)c(=O)n(-c4ncccc4C(F)(F)F)n3C)ccc21` [Example 223, 4-(difluoromethoxy)-N-(1-methyl-5-(1-methyl-1H-indazol-5-yl)-3-oxo-2-(3-(trifluoromethyl)pyridin-2-yl)-2,3-dihydro-1H-pyrazol-4-yl)benzamide]: the 50% effective concentration (EC50) in test [1] was 166 nM; in test [2], above 5000 nM.

As for `COc1cc(F)c(-c2c(NC(=O)c3ccc(OC(F)F)cc3)c(=O)n(-c3nc(N(C)C)ccc3C(F)(F)F)n2C)c(F)c1` [Example 136, N-[5-(2,6-difluoro-4-methoxyphenyl)-2-[6-(dimethylamino)-3-(trifluoromethyl)pyridin-2-yl]-1-methyl-3-oxo-2,3-dihydro-1H-pyrazol-4-yl]-4-(difluoromethoxy)benzamide], the results for the EC50 in test [1] and in test [2] were 3 nM and 6800 nM, respectively.

For the compound `COc1cc(F)c(-c2c(NC(=O)c3ccc(OC(F)(F)F)cc3)c(=O)n(-c3ncccc3C#N)n2C)c(F)c1` [Example 56, N-[2-(3-cyanopyridin-2-yl)-5-(2,6-difluoro-4-methoxyphenyl)-1-methyl-3-oxo-2,3-dihydro-1H-pyrazol-4-yl]-4-(trifluoromethoxy)benzamide], the EC50 was 7 nM in test [1] and above 10000 nM in test [2].

As to `COc1cc(F)c(-c2c(NC(=O)c3ccc(OC(F)F)cc3)c(=O)n(-c3cc(F)ccc3C#N)n2C)c(F)c1` [Example 188, N-[2-(2-cyano-5-fluorophenyl)-5-(2,6-difluoro-4-methoxyphenyl)-1-methyl-3-oxo-2,3-dihydro-1H-pyrazol-4-yl]-4-(difluoromethoxy)benzamide], the values for the concentration for a half-maximal effect (EC50) in test [1] and in test [2] were 14 nM and above 10000 nM, respectively.

For the compound `COc1cc(F)c(-c2c(NC(=O)c3ccc(OC(F)F)cc3)c(=O)n(-c3cccc(N4CCCCC4)n3)n2C)c(F)c1` [Example 80, N-[5-(2,6-difluoro-4-methoxyphenyl)-1-methyl-3-oxo-2-[6-(piperidin-1-yl)pyridin-2-yl]-2,3-dihydro-1H-pyrazol-4-yl]-4-(difluoromethoxy)benzamide], the values for the EC50 in test [1] and in test [2] were 2 nM and 1300 nM, respectively.

With `Cn1c(-c2ccc(C(F)(F)F)cc2)c(NC(=O)c2ccc(OC(F)F)cc2)c(=O)n1-c1ncccc1C(F)(F)F` [Example 301, 4-(difluoromethoxy)-N-{1-methyl-3-oxo-5-[4-(trifluoromethyl)phenyl]-2-[3-(trifluoromethyl)pyridin-2-yl]-2,3-dihydro-1H-pyrazol-4-yl}benzamide], the results for the 50% effective concentration (EC50) in test [1] and in test [2] were 6 nM and 140 nM, respectively.

As to `COc1cc(OCC(O)C(F)(F)F)nc(-n2c(=O)c(NC(=O)c3ccc(OC(F)F)cc3)c(-c3c(F)cc(OC)cc3F)n2C)c1` (centres unmarked) [Example 380, N-(5-(2,6-Difluoro-4-methoxyphenyl)-2-(4-methoxy-6-(3,3,3-trifluoro-2-hydroxypropoxy)pyridin-2-yl)-1-methyl-3-oxo-2,3-dihydro-1H-pyrazol-4-yl)-4-(difluoromethoxy)benzamide], the EC50 came to 2 nM in test [1] and 2300 nM in test [2].

In the case of `CCOc1ccnc(-n2c(=O)c(NC(=O)c3ccc(OC(F)F)cc3)c(-c3c(F)cc(OC)cc3F)n2C)c1` [Example 78, N-[5-(2,6-difluoro-4-methoxyphenyl)-2-(4-ethoxypyridin-2-yl)-1-methyl-3-oxo-2,3-dihydro-1H-pyrazol-4-yl]-4-(difluoromethoxy)benzamide], the concentration for a half-maximal effect (EC50) in test [1] came to 10 nM; in test [2] it was 9500 nM.

For `CC(C)Oc1cc(OCCO)nc(-n2c(=O)c(NC(=O)c3ccc(OC(F)F)cc3)c(-c3c(F)cc(Cl)cc3F)n2C)c1` [Example 399, N-(5-(4-chloro-2,6-difluorophenyl)-2-(6-(2-hydroxyethoxy)-4-isopropoxypyridin-2-yl)-1-methyl-3-oxo-2,3-dihydro-1H-pyrazol-4-yl)-4-(difluoromethoxy)benzamide], the figures for the EC50 in test [1] and in test [2] were 11 nM and 550 nM, respectively.

As to `COc1cc(F)c(-c2c(NC(=O)c3ccc(-n4cccn4)cc3)c(=O)n(-c3ccccc3)n2C)c(F)c1` [Example 23, N-[5-(2,6-difluoro-4-methoxyphenyl)-1-methyl-3-oxo-2-phenyl-2,3-dihydro-1H-pyrazol-4-yl]-4-(1H-pyrazol-1-yl)benzamide], the EC50 in test [1] worked out at 150 nM; in test [2] it was 3000 nM.

Consider `COc1cc(OCC2CCCO2)nc(-n2c(=O)c(NC(=O)c3ccc(OC(F)F)cc3)c(-c3c(F)cc(OC)cc3F)n2C)c1` (centres unmarked) [Example 350, N-(5-(2,6-Difluoro-4-methoxyphenyl)-2-(4-methoxy-6-((tetrahydrofuran-2-yl)methoxy)pyridin-2-yl)-1-methyl-3-oxo-2,3-dihydro-1H-pyrazol-4-yl)-4-(difluoromethoxy)benzamide], for which the values for the EC50 in test [1] and in test [2] were 9 nM and above 10000 nM, respectively.
